The subject of one assay is hippocampal neurocytes. As to conditions: cited from earlier work.
The next assay concerns Bcl-2. In words: Effect for enhancing Bcl-2 expression (Western blotting). The format is cell-based. As to conditions: G401 cells, MK 100 ng/ml, no cisplatin. How it is done: The effect of MK on the expression of the Bcl-2 gene was examined. Six groups were prepared; the untreated group, the cisplatin (100 μM) treated group, the human MK (100 ng/ml) treated group, the human MK (100 ng/ml)+cisplatin (100 μM) group, the mouse MK (100 ng/ml) treated group, and the mouse MK (100 ng/ml)+cisplatin (100 μM) treated group.
G401 cells were seeded on a 3.5 cm-dish and cultured in 10% FBS/DMEM until the cells became almost confluent. The cells were washed twice and cultured in 0.1% FBS/DMEM overnight. Then, human MK or mouse MK (JP-A No. Hei 8-196293) was added to the MK treatment groups at 100 ng/ml and cultured for six hours. Cisplatin was added to the cisplatin treatment group to 100 μM, and cultured for 2 hours. After culturing, the cells were washed with 0.1% FBS/DMEM three times, cultured in 0.1% FBS/DMEM for 10 hours, and washed with PBS three times.
Two hundred microliters of buffer [1% Triton X-100, 150 mM NaCl, 10 mM Tris (pH 7.4), 1.0 mM EGTA, 0.5% NP-40, 1 mM PMSF, 0.1 μg/ml apiotinin, 40 nM Iewpeptin] were added to each dish and kept on ice for 20 min. The cells in each dish were detached by a scraper, and mixed 8 to 10 times using a syringe with a 26-gauge needle. The cells of each dish were centrifuged in a centrifuge tube at 4° C. at 12000 rpm for 30 min. The precipitated proteins were quantified (BCA Kit; PIERCE). The precipitate prepared from each dish (50 μg) was analyzed by Western blotting using anti-Bcl-2 monoclonal antibody (500×) (Dako; Denmark) and anti-mouse HRP antibody (Jackson Immuno Research) (FIG. 6). The band in each lane is numerically shown (FIG. 7).

Where two headings read alike, the source gives them in different places.

Take “NGF: neurotrophic factor reported in the literature to ameliorate delayed neuronal death”: the “rescuing hippocampal neurocytes from delayed neuronal death” value is listed as “not effective” in the assay on hippocampal neurocytes (28 days after the injury (Ishimura et al. 1998)) and “effective” in the assay with hippocampal neurocytes (seven days after development of the ischemic injury (Ishimura et al. 1998)). In the assay on hippocampal neurocytes (intraventricular injection (Shigeno et al. 1991)), the “dosage required for protection from delayed neuronal death” value was 10 µg.

B1: mouse MK: mouse MK (JP-A No. Hei 8-196293) (protein, UniProt P12025 23-140, looked up)
Midkine: KKKEKVKKGSECSEWTWGPCTPSSKDCGMGFREGTCGAQTQRVHCKVPCNWKKEFGADCKYKFESWGACDGSTGTKARQGTLKKARYNAQCQETIRVTKPCTSKTKSKTKAKKGKGKD
B1: the “expression of Bcl-2” value with Bcl-2 is recorded as “enhanced the expression of Bcl-2”.

Source of the values: patent publication US20050079151A1, “Therapeutic agents for apoptosis-related diseases” (priority 1998, published 2005).
